Laboratory results reported in US12559863B2, “Macrocyclic modulators of disease associated protein misfolding and aggregation” (RESQ BIOTECH, priority 2017, dated 2026).
Where a SMILES comes first, the peptide text is derived from it.

Columns and labels:
SOD1(A4V) = biological target: T1, SOD1(A4V) (Homo sapiens, UniProt P00441, A5V); experiment: Differential scanning fluorimetry of SOD1(A4V) with SYPRO Orange; type: biochemical; conditions: 5:1 peptide to protein ratio
T1 construct: polyHis; made in house; host or cells: E. coli Origami 2(DE3)
Experimental: FIGS. 4A-4F: (A) Chemical structure of the selected cyclic pentapeptide SOD1C5-4. (B) Circular dichroism spectra of SOD1(A4V) incubated with/without the selected cyclic pentapeptides SOD1C5-4, AβC5-34 or AβC5-116 at room temperature for 90 d (1:1 and 5:1 indicate cyclic peptide:SOD1(A4V) molar ratios). Representative spectra from n=2 independent experiments are presented. (C) Dynamic light scattering analysis of SOD1(A4V) incubated with/without the selected cyclic pentapeptides at room temperature for 60 d. Representative data from n=2 independent experiments are presented. (D) Thioflavin T (ThT) fluorescence of SOD1(A4V) incubated with/without the selected cyclic pentapeptides at room temperature for 90 d. Representative data from n=2 independent experiments are presented. (E) Filter retardation assay of SOD1(A4V) incubated with/without the selected cyclic pentapeptides at 37° C. for 25 d. Representative images from n=2 independent experiments performed in replica duplicates are presented. (F) Differential scanning fluorimetry analysis of isolated SOD1(A4V) in the presence or absence of the selected cyclic pentapeptide SOD1C5-4 (5:1 peptide to protein ratio) using the conformation-sensitive dye SYPRO Orange. Data corresponding to n=2 independent experiments each one performed in three replicates±s.e.m. are presented.

Aβ42 = biological target: T2, Aβ42 (Homo sapiens, UniProt P05067); experiment: Thioflavin T dye-binding assay of Aβ42; type: biochemical; conditions: 30-d aged CD solutions
T2 construct: one of the secondary products yields a 42-amino-acid-long peptide (Aβ42); purchased Eurogentec, Belgium; host or cells: chemical synthesis
Experimental: For Aβ ThT staining, 100 μL of the 30-d aged 50 μM CD solutions were diluted in PBS (10 mM, pH 7.33) to form a 25 μM Aβ solution with 200 μL final volume. 2.5 μL from a stock solution of ThT (Sigma-Aldrich, USA) in PBS (10 mM, pH 7.33) was added to the prepared Aβ solutions to achieve a final ThT concentration of 5 μM. The mixture was agitated adequately by pipetting and immediately thereafter, fluorescence was monitored with excitation at 440 nm (EM slit=2.5 nm, PMT Voltage 700 V, response 0.4 s) using a HITACHI F-2500 (Japan) spectrofluorometer.

[1] = system: glioblastoma cell line U87MG; type: cell-based, human; conditions: for Aβ-induced toxicity in U87MG: MTT
Experimental: The utilized U87MG cells (human glioblastoma-astrocytoma, epithelial-like cell line) were kind a gift from Dr. Maria Paravatou-Petsotas, Radiobiology Laboratory, Institute of Nuclear & Radiological Sciences & Technology, Energy & Safety, NCSR “Demokritos”. The utilized media/agents for U87MG cell cultures were obtained from Biochrom AG (Germany) and PAA Laboratories (USA). U87MG cells were grown in Dulbecco's modified Eagle medium (DMEM), supplemented with 10% fetal bovine serum (FBS), 2.5 mM L-glutamine, 1% penicillin/streptomycin at 37° C. and 5% CO2. For MTT cytotoxicity studies, cells were plated at a density of 2×10^4 cells per well in 96-well plates and incubated at 37° C. for 24 h to allow cells to attach. The medium was subsequently removed and cells were rendered quiescent by incubation in serum-free medium for 24 h. For cell viability measurements cells were subsequently treated with the indicated concentrations of Aβ in the presence or absence of synthetic peptides, as described in Materials and Methods.
(§1) Solutions of synthetic Aβ40 or Aβ42 (10 μM) in PBS, preincubated at 37° C. (3 d for Aβ40 solutions and 1 d for Aβ42 solutions) in the presence or absence of synthetic cyclic peptides (1:1 and 2:1 ratio of peptides:Aβ), were diluted with fresh medium and transferred into wells at a 1 μM final Aβ concentration. Cell viability was determined using the MTT assay. MTT (3-[4,5-dimethylthiazol-2-yl]-2,5-diphenyl tetrazolium bromide) was purchased from Applichem (Germany). After 24 h of exposure to Aβ solutions, 100 μL of a 0.5 mg/mL stock solution of MTT in Neurobasal-A was added to each well of primary hippocampal neurons followed by a 3 h incubation at 37° C., while 100 μL of a 1 mg/mL stock solution of MTT in DMEM complete medium was added to each well of U87MG cells followed by a 4 h incubation at 37° C. The medium was then removed and the cells were diluted in DMSO. The relative formazan concentration was measured by determination of the absorbance at 540 nm using a plate reader (Tecan, Austria). Results were expressed as the percentage of MTT reduction, assuming that the absorbance of control (untreated) cells was 100%, and represent the mean of three independent experiments with six replicate wells for each condition. Induced cell death was also qualitatively examined by phase-contrast microscopy (Carl Zeiss, Axiovert 25 CFL, Germany) using the above solutions. In each run, the effect of solutions of plain synthetic peptides and plain Aβ40 or Aβ42 was independently checked to serve as internal control.

[2] = system: Aβ-exposed neuronal cells; experiment: Phase-contrast microscopy of Aβ-exposed neuronal cells; type: cell-based, mouse; conditions: pre-aggregated Aβ
Experimental: as §1, with “In each run, the effect of solutions of plain synthetic peptides and plain Aβ40 or Aβ42 was independently checked to serve as internal control.” left out

[3] = system: C. elegans strain CL4176 (human Aβ42); experiment: Dot blot analysis of total and oligomeric Aβ in C. elegans CL4176; type: in vivo, Caenorhabditis elegans; conditions: for accumulation level of total Aβ, CL4176: antibody 6E10; for accumulation level of oligomeric Aβ, CL4176: antibody AB9234
Experimental: CL4176 animals were allowed to lay eggs for 3 h on NGM plates containing either synthetic peptides or 0.26% DMSO. Paralysis was induced upon temperature up-shift and the progeny were exposed to either pure peptides or 0.26% DMSO until 50% of the control population was paralyzed. The animals were then collected and boiled in non-reducing Laemmli buffer. For dot blot analysis, 1-5 μg of protein lysates were spotted onto 0.2 μm nitrocellulose membranes (Bio-Rad, USA) after soaking into TBS pre-heated at 80° C. Immunoblotting was performed using the anti-Aβ antibody 6E10 (recognizes total Aβ) and the anti-amyloid protein, oligomer-specific antibody AB9234 (Merck Millipore, Germany). Actin was used as a loading control. Blots were developed with chemiluminescence by using the Clarity™ Western ECL substrate (Bio-Rad, USA). Quantification of the ratio of each detected protein to actin using the anti-actin antibody sc-1615 (Santa Cruz, Germany), and normalization to control appears next to each representative blot.

T1 sequence (P00441 whole entry A5V): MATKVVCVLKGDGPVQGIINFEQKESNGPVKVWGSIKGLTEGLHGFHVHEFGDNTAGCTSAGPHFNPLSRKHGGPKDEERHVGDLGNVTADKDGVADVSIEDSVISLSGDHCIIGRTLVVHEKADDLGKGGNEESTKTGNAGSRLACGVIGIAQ

Row | Compound | propensity of SOD1(A4V) to expose hydrophobic surfaces (SYPRO Orange, heat-induced denaturation) (SOD1(A4V)) | extent of Aβ42 amyloid fibril formation (ThT) (Aβ42) | growth-promoting effects or cytotoxicity of peptide on its own [1] | Aβ-induced toxicity in U87MG [1] | morphology of Aβ-exposed neuronal cells [2] | accumulation level of total Aβ, CL4176 [3] | accumulation level of oligomeric Aβ, CL4176 [3]
1 | cyclo-TWSVW (cyclic) [SOD1C5-4] | decrease the propensity of SOD1(A4V) to expose hydrophobic surfaces | did not have any effect | – | – | – | – | –
2 | C[C@@H]1NC(=O)[C@H](CO)NC(=O)[C@H]([C@@H](C)O)NC(=O)[C@@H]2CCCN2C(=O)[C@H](CO)NC1=O [AβC5-34, cyclo-SASPT] (cyclo(ASPTS)) | – | – | did not exhibit general growth-promoting effects or considerable cytotoxicity | toxicity-suppressing effects | marked recovery of the Aβ-induced alterations | significant reduction of both Aβ species | significant reduction of both Aβ species
3 | C[C@@H]1NC(=O)[C@H]([C@@H](C)O)NC(=O)[C@H](CCCNC(=N)N)NC(=O)[C@H](CC(=O)O)NC(=O)[C@H](Cc2ccccc2)NC1=O [AβC5-116, cyclo-TAFDR] (cyclo(AFDRT)) | – | – | did not exhibit general growth-promoting effects or considerable cytotoxicity | toxicity-suppressing effects | marked recovery of the Aβ-induced alterations | significant reduction of both Aβ species | significant reduction of both Aβ species
